{"source": "patent US11033535B2", "about": "“Oxadiazoles and thiadiazoles as TGF-β inhibitors” (Southern Research Institute, priority 2017, dated 2021)", "test": "Pharmacokinetic evaluation following a single oral and intravenous administration", "assay_type": "in vivo, CD1 mouse", "details": "CD1, mouse, plasma; for C0 / AUC(0-inf) / AUC(0-t) / MRT inf / half-life / Vd: Table 4, IV Dose: 1 mg/kg", "method": "A NMP stock solution was prepared by adding 1.136 mL of NMP to 5.68 mg of compound no. 42140 with vortexing and sonification, to obtain a solution with a concentration at 5 mg/mL of 42140:01. Next, to prepare an intravenous formulation, 0.100 mL of the 5 mg/mL stock solution was placed in a new vial. 0.100 mL of NMP and 0.400 mL of PEG400 were added with vortexing and sonification, followed by addition of 0.400 mL of saline with vortexing and sonification. […] 42140:01. Alternatively, to prepare an oral formulation, 0.200 mL of the 5 mg/mL stock solution was placed in a new vial. 0.400 mL of PEG400 was added with vortexing and sonification, followed by addition of 0.400 mL of saline with vortexing and sonifiction. […] 42140:01.\n(§1) Briefly, the desired serial concentrations of working solutions were achieved by diluting a stock solution of the compound with 100% acetonitrile. 3 μL of working solutions (5, 10, 20, 50, 100, 500, 1000, 5000, 10000 ng/mL) were added to 30 μL of the blank CD1 mouse plasma to achieve calibration standards of 0.5-1000 ng/mL (0.5, 1, 2, 5, 10, 50, 100, 500, 1000 ng/mL) in a total volume of 33 μL. Five quality control samples at 1 ng/mL, 2 ng/mL, 5 ng/mL, 50 ng/mL and 800 ng/mL for plasma were prepared independently of those used for the calibration curves. These QC samples were prepared on the day of analysis in the same way as calibration standards.\nNext, 33 μL standards, 33 μL QC samples, and 33 μL unknown samples (30 μL plasma with 3 μL blank solution) were added to 200 μL of acetonitrile containing IS mixture for precipitating protein, respectively. Then the samples were vortexed for 30 s. After centrifugation at 4 degree Celsius, 4000 rpm for 15 min, 3 μL of supernatant was injected into the LC/MS/MS system for quantitative analysis.\nHPLC analysis was performed using 100% water with 0.1% formic acid (Solution A) and 100% acetonitrile with 0.1% formic acid (Solution B) with a flow rate of 0.6 mL/min.\nA NMP stock solution was prepared by adding 2.092 mL of NMP to 10.46 mg of […] with vortexing and sonification, to obtain a solution with a concentration at 5 mg/mL of […]. Next, to prepare an intravenous formulation, 0.100 mL of the 5 mg/mL stock solution was placed in a new vial. 0.100 mL of NMP and 0.400 mL of PEG400 were added with vortexing and sonification, followed by addition of 0.400 mL of saline with vortexing and sonification. […] 42320:01. Alternatively, to prepare an oral formulation, 0.200 mL of the 5 mg/mL stock solution was placed in a new vial. 0.400 mL of PEG400 was added with vortexing and sonification, followed by addition of 0.400 mL of saline with vortexing and sonifiction. […] 42320:01.\nas §1, with “50 ng/mL,” for “50 ng/mL”", "key": {"[1]": {"details": "iv, 1 mg/kg, Table 3, IV Dose: 1 mg/kg, Mouse 1, read-out: Concentration"}, "[2]": {"details": "iv, 1 mg/kg, Table 3, IV Dose: 1 mg/kg, Mouse 2, read-out: Concentration"}, "[3]": {"details": "iv, 1 mg/kg, Table 3, IV Dose: 1 mg/kg, Mouse 3, read-out: Concentration"}, "[4]": {"details": "iv, 1 mg/kg, Table 3, IV Dose: 1 mg/kg, mean, read-out: Concentration, Mean"}, "[5]": {"details": "po, 5 mg/kg, Table 5, PO Dose: 5 mg/kg, Mouse 4, read-out: Concentration"}, "[6]": {"details": "po, 5 mg/kg, Table 5, PO Dose: 5 mg/kg, Mouse 5, read-out: Concentration"}, "[7]": {"details": "po, 5 mg/kg, Table 5, PO Dose: 5 mg/kg, Mouse 6, read-out: Concentration"}, "[8]": {"details": "po, 5 mg/kg, Table 5, PO Dose: 5 mg/kg, mean, read-out: Concentration, Mean"}}, "note": "Like-named read-outs stand apart in the source and are kept apart here."}
{"smiles": "CNCc1ccc(C[C@H](NC(C)=O)c2nnc(-c3cccc(OC(F)(F)F)c3)s2)cc1", "note": "[Compound 42140, N-(2-(4-((methylamino)methyl)phenyl)-1-(5-(3-(trifluoromethoxy)phenyl)-1,3,4-thiadiazol-2-yl)ethyl)acetamide]", "values": [{"measurement": "concentration at 5 min", "setting": "[1]", "value": 96.6, "unit": "ng/mL"}, {"measurement": "concentration at 5 min", "setting": "[2]", "value": 89.5, "unit": "ng/mL"}, {"measurement": "concentration at 5 min", "setting": "[3]", "value": 86.3, "unit": "ng/mL"}, {"measurement": "concentration at 5 min", "setting": "[4]", "value": 90.8, "unit": "ng/mL"}, {"measurement": "concentration at 0.25 h", "setting": "[1]", "value": 81.5, "unit": "ng/mL"}, {"measurement": "concentration at 0.25 h", "setting": "[2]", "value": 65, "unit": "ng/mL"}, {"measurement": "concentration at 0.25 h", "setting": "[3]", "value": 74.2, "unit": "ng/mL"}, {"measurement": "concentration at 0.25 h", "setting": "[4]", "value": 73.6, "unit": "ng/mL"}, {"measurement": "concentration at 0.5 h", "setting": "[1]", "value": 57.2, "unit": "ng/mL"}, {"measurement": "concentration at 0.5 h", "setting": "[2]", "value": 53.8, "unit": "ng/mL"}, {"measurement": "concentration at 0.5 h", "setting": "[3]", "value": 48.1, "unit": "ng/mL"}, {"measurement": "concentration at 0.5 h", "setting": "[4]", "value": 53, "unit": "ng/mL"}, {"measurement": "concentration at 1 h", "setting": "[1]", "value": 57.8, "unit": "ng/mL"}, {"measurement": "concentration at 1 h", "setting": "[2]", "value": 42.1, "unit": "ng/mL"}, {"measurement": "concentration at 1 h", "setting": "[3]", "value": 43.7, "unit": "ng/mL"}, {"measurement": "concentration at 1 h", "setting": "[4]", "value": 47.9, "unit": "ng/mL"}, {"measurement": "concentration at 2 h", "setting": "[1]", "value": 43.7, "unit": "ng/mL"}, {"measurement": "concentration at 2 h", "setting": "[2]", "value": 34.1, "unit": "ng/mL"}, {"measurement": "concentration at 2 h", "setting": "[3]", "value": 39.9, "unit": "ng/mL"}, {"measurement": "concentration at 2 h", "setting": "[4]", "value": 39.2, "unit": "ng/mL"}, {"measurement": "concentration at 4 h", "setting": "[1]", "value": 26.1, "unit": "ng/mL"}, {"measurement": "concentration at 4 h", "setting": "[2]", "value": 18.8, "unit": "ng/mL"}, {"measurement": "concentration at 4 h", "setting": "[3]", "value": 23.3, "unit": "ng/mL"}, {"measurement": "concentration at 4 h", "setting": "[4]", "value": 22.7, "unit": "ng/mL"}, {"measurement": "concentration at 8 h", "setting": "[1]", "value": 16.9, "unit": "ng/mL"}, {"measurement": "concentration at 8 h", "setting": "[2]", "value": 15.5, "unit": "ng/mL"}, {"measurement": "concentration at 8 h", "setting": "[3]", "value": 14.9, "unit": "ng/mL"}, {"measurement": "concentration at 8 h", "setting": "[4]", "value": 15.8, "unit": "ng/mL"}, {"measurement": "concentration at 24 h", "setting": "[1]", "value": 6.4, "unit": "ng/mL"}, {"measurement": "concentration at 24 h", "setting": "[2]", "value": 5.76, "unit": "ng/mL"}, {"measurement": "concentration at 24 h", "setting": "[3]", "value": 4.27, "unit": "ng/mL"}, {"measurement": "concentration at 24 h", "setting": "[4]", "value": 5.48, "unit": "ng/mL"}, {"measurement": "C0", "setting": "iv, 1 mg/kg, Mouse 1", "value": 105, "unit": "ng/mL"}, {"measurement": "AUC(0-inf)", "setting": "iv, 1 mg/kg, Mouse 1, read-out: AUCInf", "value": 557, "unit": "ng·h/mL"}, {"measurement": "AUC(0-t)", "setting": "iv, 1 mg/kg, Mouse 1, read-out: AUClast", "value": 462, "unit": "ng·h/mL"}, {"measurement": "MRT inf", "setting": "iv, 1 mg/kg, Mouse 1, read-out: MRTInf—obs", "value": 12.1, "unit": "h"}, {"measurement": "half-life", "setting": "iv, 1 mg/kg, Mouse 1, read-out: T1/2 (converted)", "value": 10.3, "unit": "h"}, {"measurement": "Vd", "setting": "iv, 1 mg/kg, Mouse 1, read-out: Vss—obs", "value": 21.8, "unit": "L/kg"}, {"measurement": "C0", "setting": "iv, 1 mg/kg, Mouse 2", "value": 105, "unit": "ng/mL"}, {"measurement": "AUC(0-inf)", "setting": "iv, 1 mg/kg, Mouse 2, read-out: AUCInf", "value": 486, "unit": "ng·h/mL"}, {"measurement": "AUC(0-t)", "setting": "iv, 1 mg/kg, Mouse 2, read-out: AUClast", "value": 389, "unit": "ng·h/mL"}, {"measurement": "MRT inf", "setting": "iv, 1 mg/kg, Mouse 2, read-out: MRTInf—obs", "value": 13.7, "unit": "h"}, {"measurement": "half-life", "setting": "iv, 1 mg/kg, Mouse 2, read-out: T1/2 (converted)", "value": 11.6, "unit": "h"}, {"measurement": "Vd", "setting": "iv, 1 mg/kg, Mouse 2, read-out: Vss—obs", "value": 28.1, "unit": "L/kg"}, {"measurement": "C0", "setting": "iv, 1 mg/kg, Mouse 3", "value": 93, "unit": "ng/mL"}, {"measurement": "AUC(0-inf)", "setting": "iv, 1 mg/kg, Mouse 3, read-out: AUCInf", "value": 445, "unit": "ng·h/mL"}, {"measurement": "AUC(0-t)", "setting": "iv, 1 mg/kg, Mouse 3, read-out: AUClast", "value": 394, "unit": "ng·h/mL"}, {"measurement": "MRT inf", "setting": "iv, 1 mg/kg, Mouse 3, read-out: MRTInf—obs", "value": 9.69, "unit": "h"}, {"measurement": "half-life", "setting": "iv, 1 mg/kg, Mouse 3, read-out: T1/2 (converted)", "value": 8.36, "unit": "h"}, {"measurement": "Vd", "setting": "iv, 1 mg/kg, Mouse 3, read-out: Vss—obs", "value": 21.8, "unit": "L/kg"}, {"measurement": "AUC(0-inf)", "setting": "iv, 1 mg/kg, mean, read-out: AUCInf, Mean", "value": 496, "unit": "ng·h/mL"}, {"measurement": "AUC(0-t)", "setting": "iv, 1 mg/kg, mean, read-out: AUClast, Mean", "value": 415, "unit": "ng·h/mL"}, {"measurement": "MRT inf", "setting": "iv, 1 mg/kg, mean, read-out: MRTInf—obs, Mean", "value": 11.8, "unit": "h"}, {"measurement": "half-life", "setting": "iv, 1 mg/kg, mean, read-out: T1/2, Mean (converted)", "value": 10.1, "unit": "h"}, {"measurement": "Vd", "setting": "iv, 1 mg/kg, mean, read-out: Vss—obs, Mean", "value": 23.9, "unit": "L/kg"}, {"measurement": "concentration at 0.25 h", "setting": "[5]", "value": 54.5, "unit": "ng/mL"}, {"measurement": "concentration at 0.25 h", "setting": "[6]", "value": 60.6, "unit": "ng/mL"}, {"measurement": "concentration at 0.25 h", "setting": "[7]", "value": 73.1, "unit": "ng/mL"}, {"measurement": "concentration at 0.25 h", "setting": "[8]", "value": 62.7, "unit": "ng/mL"}, {"measurement": "concentration at 0.5 h", "setting": "[5]", "value": 92.2, "unit": "ng/mL"}, {"measurement": "concentration at 0.5 h", "setting": "[6]", "value": 91.9, "unit": "ng/mL"}, {"measurement": "concentration at 0.5 h", "setting": "[7]", "value": 106, "unit": "ng/mL"}, {"measurement": "concentration at 0.5 h", "setting": "[8]", "value": 97, "unit": "ng/mL"}, {"measurement": "concentration at 1 h", "setting": "[5]", "value": 117, "unit": "ng/mL"}]}
